In patent publication US12172983B2, “EGFR inhibitors” (Blueprint Medicines Corporation, priority 2019, dated 2024):
Like-named read-outs stand apart in the source and are kept apart here.

Key:
[1] = biological target: T1, EGFR (L858R T790M C797S) (Homo sapiens, UniProt P00533, C797S/L858R/T790M); experiment: Biochemical EGFR inhibition assay (Caliper mobility shift), EGFR LRTMCS mutant; settings: inhibitory activity against EGFR LRTMCS mutant; apparent IC50; read-out: Ext Enz LRTMCS
T1 construct: purchased SignalChem E10-122VG
T1 sequence (P00533 25-1210 T790M/C797S/L858R): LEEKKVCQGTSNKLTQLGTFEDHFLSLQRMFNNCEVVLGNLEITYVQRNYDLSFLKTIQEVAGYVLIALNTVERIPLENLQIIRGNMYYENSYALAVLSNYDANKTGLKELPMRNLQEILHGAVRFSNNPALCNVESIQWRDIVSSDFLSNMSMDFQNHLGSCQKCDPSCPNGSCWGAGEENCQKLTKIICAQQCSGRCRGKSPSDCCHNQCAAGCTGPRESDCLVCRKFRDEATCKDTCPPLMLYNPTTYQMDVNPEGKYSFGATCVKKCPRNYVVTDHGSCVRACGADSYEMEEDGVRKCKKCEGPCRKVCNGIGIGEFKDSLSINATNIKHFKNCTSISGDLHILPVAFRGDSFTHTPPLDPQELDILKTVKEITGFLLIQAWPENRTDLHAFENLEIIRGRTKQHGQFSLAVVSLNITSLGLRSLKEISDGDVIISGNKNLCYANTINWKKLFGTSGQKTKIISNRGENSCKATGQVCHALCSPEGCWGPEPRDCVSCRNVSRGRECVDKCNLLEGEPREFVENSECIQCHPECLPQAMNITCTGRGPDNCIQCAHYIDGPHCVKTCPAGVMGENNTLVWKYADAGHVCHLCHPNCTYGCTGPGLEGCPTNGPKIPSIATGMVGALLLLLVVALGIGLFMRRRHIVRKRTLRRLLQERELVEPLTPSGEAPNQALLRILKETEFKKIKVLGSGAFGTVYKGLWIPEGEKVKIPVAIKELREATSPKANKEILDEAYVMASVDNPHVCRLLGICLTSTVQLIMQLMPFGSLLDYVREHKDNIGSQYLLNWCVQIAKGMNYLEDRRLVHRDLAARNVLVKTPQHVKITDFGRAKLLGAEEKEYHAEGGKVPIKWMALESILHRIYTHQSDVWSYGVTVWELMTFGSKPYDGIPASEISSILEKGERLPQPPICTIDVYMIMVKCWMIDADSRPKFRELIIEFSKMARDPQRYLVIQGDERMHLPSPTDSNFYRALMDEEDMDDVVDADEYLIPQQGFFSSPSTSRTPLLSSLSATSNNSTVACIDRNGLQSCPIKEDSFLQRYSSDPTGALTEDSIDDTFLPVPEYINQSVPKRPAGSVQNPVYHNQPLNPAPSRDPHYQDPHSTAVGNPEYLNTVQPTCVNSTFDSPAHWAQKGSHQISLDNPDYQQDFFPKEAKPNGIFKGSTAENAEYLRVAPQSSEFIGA
Summary of the method: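 Caliper mobility shift read-out: product and substrate peptides separated by electrophoresis and quantified. Reactions at 25° C. taken to 10–20% peptide phosphorylation, quenched with 35 mM EDTA. Apparent IC50 from percent activity vs log [compound].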

[2] = test system: phosphorylation of EGFR (Tyr1068) in NCI-H1975 cell line that harbors the EGFR L858R T790M mutations; experiment: NCI-H1975 pEGFR AlphaLISA assay; type: cell-based; settings: 4-5 hours incubation, read-out: Ext pEGFR H1975
Summary of the method: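 NCI-H1975 cells (EGFR L858R/T790M) seeded overnight, then treated with compound for 4-5 h at 37 °C/5% CO2. After lysis, p-EGFR (Tyr1068) quantified by AlphaLISA SureFire Ultra with acceptor then donor beads; IC50 fitted from percent inhibition versus log concentration.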

[3] = inhibition of phosphorylation of mutant EGFR in NCI-H1975 cells
[4] = Homo sapiens, NCI-H1975, inhibition of phosphorylation of mutant EGFR in NCI-H1975 cells

IC50 [1] [nM] | IC50 [2, 3] [nM] | IC50 [2, 4] [nM] | SMILES
≤ 15 | 30.1 to 50 |  | CO[C@H]1CCN(c2nccc(Nc3cc4c(C(C)C)ccc(N5CC(CS(C)(=O)=O)C5)c4cn3)n2)C[C@@H]1O (single isomer, unassigned) [Compound 54, (3R,4R)-1-[4-({8-[3-(methanesulfonylmethyl)azetidin-1-yl]-5-(propan-2-yl)isoquinolin-3-yl}amino)pyrimidin-2-yl]-4-methoxypiperidin-3-ol or (3S,4S)-1-[4-({8-[3-(methanesulfonylmethyl)azetidin-1-yl]-5-(propan-2-yl)isoquinolin-3-yl}amino)pyrimidin-2-yl]-4-methoxypiperidin-3-ol]
≤ 15 |  | ≤ 10 | CC(C)c1cc(F)c(N2CC(CS(C)(=O)=O)C2)c2cnc(Nc3ccnc(N4CC[C@@H](O)[C@@](C)(F)C4)n3)cc12 (single isomer, unassigned) [Compound 157]
20.1 to 30 |  | 20.1 to 30 | CO[C@H]1[C@@H](O)CN(c2nccc(Nc3cc4c(C(C)C)ncc(N5C[C@H](CS(C)(=O)=O)[C@H]5C)c4cn3)n2)CC1(F)F (single isomer, unassigned) [Compound 234, (3S,4S)-5,5-difluoro-1-[4-({8-[(2R,3S)-3-(methanesulfonylmethyl)-2-methylazetidin-1-yl]-5-(propan-2-yl)-2,6-naphthyridin-3-yl}amino)pyrimidin-2-yl]-4-methoxypiperidin-3-ol or (3R,4R)-5,5-difluoro-1-[4-({8-[(2R,3S)-3-(methanesulfonylmethyl)-2-methylazetidin-1-yl]-5-(propan-2-yl)-2,6-naphthyridin-3-yl}amino)pyrimidin-2-yl]-4-methoxypiperidin-3-ol]
≤ 15 |  | 20.1 to 30 | COCCO[C@@H]1CCN(c2nccc(Nc3cc4c(F)ccc(N5C[C@H](CS(C)(=O)=O)[C@H]5C)c4cn3)n2)C[C@@H]1F (single isomer, unassigned) [Compound 217]
≤ 15 |  | ≤ 10 | CC(C)c1cnc(N2C[C@H](CS(C)(=O)=O)[C@H]2C)c2cnc(Nc3ccnc(N4CC[C@H](OCC(C)(C)O)[C@H](F)C4)n3)cc12 [Compound 259, 1-{[(3R,4S)-3-fluoro-1-[4-({8-[(2R,3S)-3-(methanesulfonylmethyl)-2-methylazetidin-1-yl]-5-(propan-2-yl)-2,7-naphthyridin-3-yl}amino)pyrimidin-2-yl]piperidin-4-yl]oxy}-2-methylpropan-2-ol]
≤ 15 |  | ≤ 10 | CCS(=O)(=O)CC1CN(c2ccc(C(C)C)c3cc(Nc4ccnc(N5CC[C@@H](OC)[C@@H](O)C5)n4)ncc23)C1 (single isomer, unassigned) [Compound 91, (3S,4R)-1-{4-[(8-{3-[(ethanesulfonyl)methyl]azetidin-1-yl}-5-(propan-2-yl)isoquinolin-3-yl)amino]pyrimidin-2-yl}-4-methoxypiperidin-3-ol or (3R,4S)-1-{4-[(8-{3-[(ethanesulfonyl)methyl]azetidin-1-yl}-5-(propan-2-yl)isoquinolin-3-yl)amino]pyrimidin-2-yl}-4-methoxypiperidin-3-ol]
≤ 15 |  | 10.1 to 20 | CC(C)c1ccc(N2C[C@H](CS(C)(=O)=O)[C@H]2C)c2cnc(Nc3cnnc(N4CC[C@](C)(O)[C@H](F)C4)n3)cc12 (single isomer, unassigned) [Compound 141]
30.1 to 100 | ≤ 10 |  | [2H]C([2H])([2H])O[C@H]1[C@@H](O)CN(c2nccc(Nc3cc4c(C(C)C)ccc(N5C[C@H](CS(C)(=O)=O)[C@H]5C)c4cn3)n2)CC1(F)F (single isomer, unassigned) [Compound 314, (3S,4S)-5,5-difluoro-1-(4-((5-isopropyl-8-((2R,3S)-2-methyl-3-((methylsulfonyl)methyl)azetidin-1-yl)isoquinolin-3-yl)amino)pyrimidin-2-yl)-4-(^2H3)methoxypiperidin-3-ol or (3R,4R)-5,5-difluoro-1-(4-((5-isopropyl-8-((2R,3S)-2-methyl-3-((methylsulfonyl)methyl)azetidin-1-yl)isoquinolin-3-yl)amino)pyrimidin-2-yl)-4-(^2H3)methoxypiperidin-3-ol]
≤ 15 |  | 10.1 to 20 | CO[C@H]1CCN(c2nccc(Nc3cc4c(F)ccc(N5C[C@H](CS(C)(=O)=O)[C@H]5C)c4cn3)n2)C[C@H]1F [Compound 37, 5-fluoro-N-{2-[(3R,4S)-3-fluoro-4-methoxypiperidin-1-yl]pyrimidin-4-yl}-8-[(2R,3S)-3-(methanesulfonylmethyl)-2-methylazetidin-1-yl]isoquinolin-3-amine]
≤ 15 |  | ≤ 10 | CC(C)c1ccc(N2CC(CS(C)(=O)=O)C2)c2cnc(Nc3ccnc(N4CC[C@@H](O)[C@@H](F)C4)n3)cc12 [Compound 28, (3S,4R)-3-fluoro-1-[4-({8-[3-(methanesulfonylmethyl)azetidin-1-yl]-5-(propan-2-yl)isoquinolin-3-yl}amino)pyrimidin-2-yl]piperidin-4-ol]
≤ 15 |  | 10.1 to 20 | CO[C@H]1CCN(c2nccc(Nc3cc4c([C@@H](C)CO)cnc(N5C[C@H](CS(C)(=O)=O)[C@H]5C)c4cn3)n2)C[C@H]1F (single isomer, unassigned) [Compound 208, (2R)-2-[6-({2-[(3R,4S)-3-fluoro-4-methoxypiperidin-1-yl]pyrimidin-4-yl}amino)-1-[(2R,3S)-3-(methanesulfonylmethyl)-2-methylazetidin-1-yl]-2,7-naphthyridin-4-yl]propan-1-ol or (2S)-2-[6-({2-[(3R,4S)-3-fluoro-4-methoxypiperidin-1-yl]pyrimidin-4-yl}amino)-1-[(2R,3S)-3-(methanesulfonylmethyl)-2-methylazetidin-1-yl]-2,7-naphthyridin-4-yl]propan-1-ol]
≤ 15 |  | ≤ 10 | CCS(=O)(=O)CC1CN(c2ccc(C(C)C)c3cc(Nc4ccnc(N5CC[C@@H](OCCO)[C@@H](F)C5)n4)ncc23)C1 [Compound 292, 2-{[(3S,4R)-1-{4-[(8-{3-[(ethanesulfonyl)methyl]azetidin-1-yl}-5-(propan-2-yl)isoquinolin-3-yl)amino]pyrimidin-2-yl}-3-fluoropiperidin-4-yl]oxy}ethan-1-ol]
≤ 15 |  | 10.1 to 20 | CCc1cnc(N2CC(CS(C)(=O)=O)C2)c2cnc(Nc3ccnc(N4CC[C@@H](O)[C@@](C)(F)C4)n3)cc12 (single isomer, unassigned) [Compound 31]
≤ 15 |  | 30.1 to 50 | COC1(CCN)CCN(c2nccc(Nc3cc4c(C(C)C)ccc(N5C[C@H](CS(C)(=O)=O)[C@H]5C)c4cn3)n2)CC1 [Compound 221, N-{2-[4-(2-aminoethyl)-4-methoxypiperidin-1-yl]pyrimidin-4-yl}-8-[(2R,3S)-3-(methanesulfonylmethyl)-2-methylazetidin-1-yl]-5-(propan-2-yl)isoquinolin-3-amine]
